Entries after “also recorded” stand apart in the source; their conditions may differ.
Tests used:
[1] = system: carrageenan-induced paw edema; test: Inhibition of carrageenan-induced paw edema (rat paw oedema assay); format: in vivo, Sprague-Dawley rats; conditions: oral
[2] = system: stomach; test: Acute macroscopic gastric damage after oral dosing; format: in vivo, Sprague-Dawley rats; conditions: for Gastric Ulceration / macroscopic gastric ulcerations (in words, FIG. 8(1)): oral; for macroscopic gastric ulcerations (in words, FIG. 8(1)): IndoH 10 mg/kg or equimolar Indo dose in 2% (w/v) CMC solution
Description: Rats were fasted with access to water for 24 h prior to dosing and 3 hours post dosing. Three hours after administration of the test compound, the rats were euthanased and the stomach was excised and opened by incision along the greater curvature.
After the aforementioned anti-inflammatory activity experiments, the rats were immediately euthanased. Similarly, the stomach was excised and opened by incision along the greater curvature for the examination of the macroscopic ulcerations (mm^2).
Since there were no significant differences in the results obtained by the two methods, the results shown in FIG. 8(1) are those of the two methods combined.

[3] = system: small intestine; conditions: oral
[4] = oral administration; cited from earlier work
[5] = 10 mg/kg of Indo dispersed in MCT paste
[6] = 1 mg/kg of Indo dispersed in MCT paste
[7] = 2 mg/kg of Indo dispersed in MCT paste

COc1ccc2c(c1)c(CC(=O)O)c(C)n2C(=O)c1ccc(Cl)cc1 [IndoH, Indomethacin, reference compound]
Inhibition % [1, 5]: 54 ± 12% | Gastric Ulceration [2, 5]: 115 ± 30 mm^2 | Small Intestine Ulceration (mm^2) [3, 5]: 80 ± 7 mm^2

CN(C)C=O.CN(C)C=O.COc1ccc2c(c1)c(CC(=O)[O-])c(C)n2C(=O)c1ccc(Cl)cc1.COc1ccc2c(c1)c(CC(=O)[O-])c(C)n2C(=O)c1ccc(Cl)cc1.COc1ccc2c(c1)c(CC(=O)[O-])c(C)n2C(=O)c1ccc(Cl)cc1.COc1ccc2c(c1)c(CC(=O)[O-])c(C)n2C(=O)c1ccc(Cl)cc1.[Cu+2].[Cu+2] [[Cu2(Indo)4(DMF)2], bis(N,N-dimethylformamide)tetrakis-μ-(O,O′-Indo)dicopper(II) complex]
macroscopic gastric ulcerations (in words, FIG. 8(1)) [2]: significant reductions (P<0.01) in gastric ulcerations as compared to those induced by IndoH | gastrointestinal toxicity compared with indomethacin (in words) [4]: less gastrointestinal toxicity than indomethacin | small intestinal toxicity / ulceration (in words, FIG. 8(2)) ([3]; equimolar Indo dose (10 mg/kg IndoH) in 2% (w/v) CMC solution, 24 h after dosing): low small intestinal toxicity

Bis(η^1-O-Indo)tris(pyridine)copper(II) [[Cu(Indo)2(Py)3], reference compound]
efficacy in reducing inflammation (in words, FIG. 9) ([1]; equimolar Indo dose (10 mg/kg IndoH) in 2% (w/v) CMC solution): as effective as [Cu2(Indo)4(DMF)2] in reducing inflammation | macroscopic gastric ulcerations (in words, FIG. 8(1)) [2]: no significant difference in the gastric ulcerations induced by [Cu(Indo)2(Py)3] or IndoH

Bis(η^2-O,O′-Indo)bis(pyrrolidine)copper(II)-2-pyrrolidine monohydrate [[Cu(Indo)2(Pyrro)2]]
macroscopic gastric ulcerations (in words, FIG. 8(1)) ([2]; monohydrate): significant reductions (P<0.01) in gastric ulcerations as compared to those induced by IndoH; also recorded: significant reduction in gastric ulceration compared with [Cu2(Indo)4(DMF)2] | average gastric ulceration ([2]; second experiment, different sample precipitated from solution with diethyl ether, four rats, same dose of Indo): 21 mm^2

bis(η^2-O,O′-Indo)bis(4-picoline)copper(II) [[Cu(Indo)2(4-pic)2]]
Inhibition % [1, 6]: 28% | Inhibition % [1, 7]: 54% | Inhibition % ([1]; 2 mg/kg of Indo in 2% CMC): 16% | Inhibition % [1, 5]: 57 ± 19%

bis(η^2-O,O′-Indo)bis(imidazole)copper(II) [[Cu(Im)2(Indo)2]]
Inhibition % [1, 6]: 31% | Inhibition % [1, 7]: 39% | Inhibition % ([1]; 2 mg/kg of Indo in 2% CMC): 11% | Inhibition % [1, 5]: 45 ± 16% | Gastric Ulceration [2, 6]: 2 ± 2 mm^2 | Gastric Ulceration [2, 7]: 3 ± 42 mm^2 | Gastric Ulceration ([2]; 2 mg/kg of Indo in 2% CMC): 3 ± 3 mm^2 | Gastric Ulceration [2, 5]: 55 ± 42 mm^2

From US20090042848A1, “COPPER COMPLEXES” (priority 2005, published 2009)
